Measured values: patent US20110098216A1 (REGEN THERAPEUTICS PLC, priority 2009, published 2011)

Columns and labels:
[1] = test system: polychromatic erythrocytes in bone marrow of male and female ICR mice; details: definitive study, male and female mice, 24 or 48 h after dose; CP 50 mg/kg; Kastenbaum-Bowman Tables
Experimental: (§1) The assay was performed in two phases. The first phase, pilot toxicity study, was designed to assess toxicity of the test article and set dose levels for the definitive study. The second phase, the definitive micronucleus study, was designed to evaluate the potential of the test article to increase the incidence of micronucleated polychromatic erythrocytes in bone marrow of male and female ICR mice.
(§2) Phosphate buffered saline (PBS) was used as the test article vehicle. The test article was a workable suspension in PBS at 100 mg/mL, the maximum concentration prepared and tested in this study. […] In both phases of the study, test or control articles were administered at a dose volume of 20 mL/kg body weight via a single oral gavage dose.
(§3) The definitive micronucleus study consisted of seven groups, each containing 5 male and female ICR mice. […] An additional group of 5 male and 5 female ICR mice were treated with 2000 mg/kg to be used as possible replacement animals for the high dose in the event of mortality. […] Bone marrow cells [polychromatic erythrocytes (2000 PCEs/animal)] collected 24 and 48 hours after treatment were examined microscopically for the presence of micronuclei.

[2] = test system: Chinese hamster ovary (CHO) cells; experiment: Chromosome aberration assay in CHO cells; assay type: cell-based; details: preliminary toxicity assay, any dose level up to 5000 μg/mL, all three exposure groups
Experimental: A preliminary toxicity test was performed to establish the dose range for the chromosome aberration assay. The chromosome aberration assay was used to evaluate the clastogenic potential of the test article. The dosing solution concentrations were adjusted to compensate for the protein content (13.6%) of the test article using a correction factor of 7.35.
In order to evaluate the toxic effect of lactose alone on the test system, α-Lactose monohydrate was tested as reference article at the same percentage of lactose as in the highest test article dose formulation in the preliminary toxicity assay. McCoy's media (complete medium for the non-activated test system and serum-free medium for the S9-activated test system) were the solvents of choice based on the solubility of the test article and compatibility with the target cells. […] The reference article was soluble in McCoy's complete and serum-free media at the dose level tested in the preliminary toxicity assay.
In the preliminary toxicity assay, the maximum dose tested was 5000 μg/mL. […] The reference article was soluble in complete medium and serum-free medium at 31.76 mg/mL at the beginning and conclusion of the treatment period. […]

[3] = Solubility and precipitation in water / on plates (mutation assay); assay type: physicochemical; details: initial toxicity-mutation assay with lactose, up to 31765 μg per plate
Experimental: (§4) The dose levels tested were 1.5, 5.0, 15, 50, 150, 500, 1500 and 5000 μg per plate.
(§5) The dose levels tested were 50, 150, 500, 1500 and 5000 μg per plate.

male and female ICR mice = details: mouse, in vivo
Experimental: as §1, §2, §3

[4] = test system: Salmonella typhimurium tester strains TA98, TA100, TA1535 and TA1537 and Escherichia coli tester strain WP2 uvrA; experiment: Bacterial Reverse Mutation Assay (plate incorporation method); details: initial toxicity-mutation assay with lactose, maximum dose 31765 μg per plate
Experimental: as §4
Based on the findings of the initial toxicity-mutation assay, the maximum dose plated in the confirmatory mutagenicity assay was 5000 μg per plate.
as §5

SMILES | incidence of micronucleated polychromatic erythrocytes relative to vehicle control [1] | substantial toxicity (at least 50% cell growth inhibition relative to solvent control) [2] | precipitate [3] | mortality and clinical signs (male and female ICR mice) | toxicity [4]
O=P1(N(CCCl)CCCl)NCCCO1 (centres unmarked) [CP, cyclophosphamide monohydrate] | significant increase | – | – | – | –
O.OC[C@H]1O[C@@H](O[C@H]2[C@H](O)[C@@H](O)[C@@H](O)O[C@@H]2CO)[C@H](O)[C@@H](O)[C@H]1O [α-Lactose monohydrate] | – | not observed | Neither precipitate | no clinical signs | Neither precipitate nor appreciable toxicity
